How the values were obtained:
[1] = biological target: Human MET (residues 956-1390) (Homo sapiens (Human), UniProt P08581); assay: Human Met kinase assay, HTRF KinEase (Example D-2); type: biochemical; conditions: protocol of Example D-2 (other compounds); read-out: c-Met IC50
Method in brief: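 IC50 values come from a 4-parameter logistic fit of the […] fluorescence ratio, set between DMSO (100%) and reference compound at 1 μM (0%). Reactions held MET 956-1390 at 0.1 ng/well, ATP at Km, biotinylated peptide, 5 mM MgCl2, 1 mM MnCl2, 1 mM DTT and 3% DMSO, and ran 40 min at room temperature before streptavidin-XL665/Eu-antibody detection.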

[2] = biological target: Mer (phospho-Mer, MERTK-transfected 293A cells) (Homo sapiens (Human), UniProt Q12866); assay: Mer autophosphorylation ELISA in transient transfected 293A cells (Example H); type: cell-based; conditions: cellular activity; Mer autophosphorylation ELISA in transient transfected 293A cells
Method in brief: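 Inhibition of cellular Mer autophosphorylation is determined in 293A cells transiently expressing human MERTK after 1 h compound exposure (8 concentrations, serum-free, 0.3% DMSO). Phospho-Mer in clarified lysates is measured by ELISA, with DMSO and reference-inhibitor wells defining the 100% and 0% activity limits.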

[3] = biological target: Human MER (residues 528-999) (Homo sapiens (Human), UniProt Q12866); assay: Human Mer kinase assay, HTRF KinEase (Example C-2); type: biochemical; conditions: protocol of Example C-2 (other compounds)
Method in brief: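 IC50 values from 10 concentrations via 4-parameter logistic fit of […], with DMSO as 100% and 1 μM reference compound as 0% activity. Reaction: MER kinase domain 528-999, 1 ng/well, 40 μM ATP (Km), biotin peptide, 5 mM MgCl2, 1 mM DTT, 3% DMSO, room temperature 60 min; HTRF streptavidin-XL665/Eu-antibody detection.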

Sequence of Human MET (residues 956-1390) (P08581 956-1390): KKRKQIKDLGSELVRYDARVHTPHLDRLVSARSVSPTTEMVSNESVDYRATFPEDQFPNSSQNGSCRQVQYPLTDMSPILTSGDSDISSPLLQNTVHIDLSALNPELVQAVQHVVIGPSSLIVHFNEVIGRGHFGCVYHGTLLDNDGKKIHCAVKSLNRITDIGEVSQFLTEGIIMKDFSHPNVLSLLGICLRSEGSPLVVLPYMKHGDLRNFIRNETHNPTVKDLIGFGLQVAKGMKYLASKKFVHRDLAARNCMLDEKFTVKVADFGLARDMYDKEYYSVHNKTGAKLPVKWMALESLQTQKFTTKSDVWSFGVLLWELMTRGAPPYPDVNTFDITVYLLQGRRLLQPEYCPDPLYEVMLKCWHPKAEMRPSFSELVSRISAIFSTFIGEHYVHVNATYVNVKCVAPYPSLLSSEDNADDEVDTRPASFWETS
Sequence of Mer (phospho-Mer, MERTK-transfected 293A cells) (Q12866 21-999): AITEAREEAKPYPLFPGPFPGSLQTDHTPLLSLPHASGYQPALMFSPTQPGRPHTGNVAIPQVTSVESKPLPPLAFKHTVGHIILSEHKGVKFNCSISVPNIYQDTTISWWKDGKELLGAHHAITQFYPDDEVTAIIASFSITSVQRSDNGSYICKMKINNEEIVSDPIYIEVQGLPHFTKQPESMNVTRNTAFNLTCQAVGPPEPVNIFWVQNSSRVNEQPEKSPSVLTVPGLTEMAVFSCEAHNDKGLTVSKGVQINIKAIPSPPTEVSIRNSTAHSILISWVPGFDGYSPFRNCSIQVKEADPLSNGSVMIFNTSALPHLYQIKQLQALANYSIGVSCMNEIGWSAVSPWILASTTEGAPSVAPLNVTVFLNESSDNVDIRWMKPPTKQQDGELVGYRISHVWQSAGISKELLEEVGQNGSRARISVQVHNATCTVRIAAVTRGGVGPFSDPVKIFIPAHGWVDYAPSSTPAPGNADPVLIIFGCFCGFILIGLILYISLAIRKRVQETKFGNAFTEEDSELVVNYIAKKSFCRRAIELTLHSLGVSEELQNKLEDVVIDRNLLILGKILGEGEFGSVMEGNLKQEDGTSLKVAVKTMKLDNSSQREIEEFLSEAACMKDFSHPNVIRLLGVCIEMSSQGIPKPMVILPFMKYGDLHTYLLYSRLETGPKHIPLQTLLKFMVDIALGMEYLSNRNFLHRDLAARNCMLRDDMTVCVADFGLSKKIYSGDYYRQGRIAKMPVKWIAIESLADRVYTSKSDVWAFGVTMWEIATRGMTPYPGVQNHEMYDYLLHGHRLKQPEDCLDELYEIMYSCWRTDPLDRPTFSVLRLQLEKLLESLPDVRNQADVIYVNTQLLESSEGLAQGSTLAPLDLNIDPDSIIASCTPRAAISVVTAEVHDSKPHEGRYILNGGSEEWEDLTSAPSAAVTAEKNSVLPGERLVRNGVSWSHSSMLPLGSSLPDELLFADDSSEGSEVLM
Sequence of Human MER (residues 528-999) (Q12866 528-999): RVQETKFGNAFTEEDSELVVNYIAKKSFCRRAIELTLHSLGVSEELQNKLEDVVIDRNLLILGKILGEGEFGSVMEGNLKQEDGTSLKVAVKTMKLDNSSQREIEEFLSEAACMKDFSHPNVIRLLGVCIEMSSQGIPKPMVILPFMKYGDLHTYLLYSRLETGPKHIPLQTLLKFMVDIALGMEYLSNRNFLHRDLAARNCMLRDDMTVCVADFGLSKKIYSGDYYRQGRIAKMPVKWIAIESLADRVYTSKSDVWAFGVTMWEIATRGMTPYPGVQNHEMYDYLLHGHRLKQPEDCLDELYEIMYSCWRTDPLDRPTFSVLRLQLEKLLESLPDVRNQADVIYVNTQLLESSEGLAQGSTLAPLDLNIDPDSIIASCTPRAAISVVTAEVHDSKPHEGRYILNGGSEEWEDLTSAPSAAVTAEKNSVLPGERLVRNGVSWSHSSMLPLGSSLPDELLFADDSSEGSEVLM

Compound | IC50 [1] | IC50 [2] | IC50 [3]
COc1cc2nccc(Oc3ccc(NC(=O)c4cnc(CO)c(-c5ccc(F)cc5)c4O)cc3F)c2nc1OC [Compound 71, N-[4-[(6,7-Dimethoxy-1,5-naphthyridin-4-yl)oxy]-3-fluorophenyl]-5-(4-fluorophenyl)-4-hydroxy-6-(hydroxymethyl)pyridine-3-carboxamide] | < 100 nM | < 100 nM | < 100 nM
COc1ccc2nccc(Oc3ccc(NC(=O)c4ccc(C)n(-c5ccc(F)cc5)c4=O)cc3F)c2n1 [Compound 84, N-[3-Fluoro-4-[(6-methoxy-1,5-naphthyridin-4-yl)oxy]phenyl]-1-(4-fluorophenyl)-6-methyl-2-oxopyridine-3-carboxamide] | < 100 nM | < 100 nM | < 100 nM
Cc1cc2nccc(Oc3ccc(NC(=O)c4cnc(C)c(-c5ccc(F)cc5)c4O)cc3F)c2nc1F [Compound 426, N-[3-fluoro-4-[(6-fluoro-7-methyl-1,5-naphthyridin-4-yl)oxy]phenyl]-5-(4-fluorophenyl)-4-hydroxy-6-methylpyridine-3-carboxamide] | < 100 nM | < 100 nM | < 100 nM
COc1cc2nccc(Oc3ccc(NC(=O)c4cn(C)c(C#N)c(-c5ccc(F)cc5)c4=O)cc3F)c2nc1OC [Compound 77, 6-Cyano-N-[4-[(6,7-dimethoxy-1,5-naphthyridin-4-yl)oxy]-3-fluorophenyl]-5-(4-fluorophenyl)-1-methyl-4-oxopyridine-3-carboxamide] | < 100 nM | < 100 nM | < 100 nM
COc1cc2nccc(Oc3ccc(NC(=O)c4cn(-c5cn[nH]c5)cc(-c5ccc(F)cc5)c4=O)cc3F)c2nc1OC [Compound 62, N-[4-[(6,7-Dimethoxy-1,5-naphthyridin-4-yl)oxy]-3-fluorophenyl]-5-(4-fluorophenyl)-4-oxo-1-(1H-pyrazol-4-yl)pyridine-3-carboxamide] | < 100 nM | < 100 nM | < 100 nM
COc1ccc2nccc(Oc3ccc(NC(=O)c4cn(C5CC5)c(C)c(-c5ccc(F)cc5)c4=O)cc3F)c2n1 [Compound 435, 1-cyclopropyl-N-[3-fluoro-4-[(6-methoxy-1,5-naphthyridin-4-yl)oxy]phenyl]-5-(4-fluorophenyl)-6-methyl-4-oxopyridine-3-carboxamide] | < 100 nM | < 100 nM | < 100 nM
COc1cnc2c(Oc3ccc(NC(=O)c4ccc(C)n(-c5ccc(F)cc5)c4=O)cc3F)ccnc2c1 [Compound 83, N-[3-Fluoro-4-[(7-methoxy-1,5-naphthyridin-4-yl)oxy]phenyl]-1-(4-fluorophenyl)-6-methyl-2-oxopyridine-3-carboxamide] | < 100 nM | < 100 nM | < 100 nM
CNc1c(-c2ccc(F)cc2)c(=O)c(C(=O)Nc2ccc(Oc3ccnc4cc(OC)c(OC)nc34)c(F)c2)cn1C [Compound 76, N-[4-[(6,7-Dimethoxy-1,5-naphthyridin-4-yl)oxy]-3-fluorophenyl]-5-(4-fluorophenyl)-1-methyl-6-(methylamino)-4-oxopyridine-3-carboxamide] | < 100 nM | < 100 nM | < 100 nM
COc1cc2nccc(Oc3ccc(NC(=O)c4cnc(C)c(-c5ccc(F)cc5)c4O)cc3F)c2nc1OCCCN1CCOCC1 [Compound 424, N-[3-fluoro-4-[[7-methoxy-6-(3-morpholin-4-ylpropoxy)-1,5-naphthyridin-4-yl]oxy]phenyl]-5-(4-fluorophenyl)-4-hydroxy-6-methylpyridine-3-carboxamide] | < 100 nM | < 100 nM | < 100 nM
CCc1cc2nccc(Oc3ccc(NC(=O)c4cnc(C)c(-c5ccc(F)cc5)c4O)cc3F)c2nc1OC [Compound 420, N-[4-[(7-ethyl-6-methoxy-1,5-naphthyridin-4-yl)oxy]-3-fluorophenyl]-5-(4-fluorophenyl)-4-hydroxy-6-methylpyridine-3-carboxamide] | 100 to 300 nM | < 100 nM | < 100 nM
COc1cc2nccc(Oc3ccc(NC(=O)c4cn(C5CC5)c(C)c(-c5ccc(F)cc5C)c4=O)cc3)c2nc1OC [Compound 440, 1-cyclopropyl-N-[4-[(6,7-dimethoxy-1,5-naphthyridin-4-yl)oxy]phenyl]-5-(4-fluoro-2-methylphenyl)-6-methyl-4-oxopyridine-3-carboxamide] | < 100 nM | < 100 nM | < 100 nM
COc1cc2nccc(Oc3ccc(NC(=O)c4cnc(C)c(-c5ccc(F)cc5)c4O)cc3F)c2nc1OC(C)C [Compound 415, N-[3-fluoro-4-[(7-methoxy-6-propan-2-yloxy-1,5-naphthyridin-4-yl)oxy]phenyl]-5-(4-fluorophenyl)-4-hydroxy-6-methylpyridine-3-carboxamide] | < 100 nM | < 100 nM | < 100 nM
COc1cc2nccc(Oc3ccc(NC(=O)c4ncc(C)n(-c5ccc(F)cc5)c4=O)cc3F)c2nc1OC [Compound 93, N-[4-[(6,7-Dimethoxy-1,5-naphthyridin-4-yl)oxy]-3-fluorophenyl]-4-(4-fluorophenyl)-5-methyl-3-oxopyrazine-2-carboxamide] | < 100 nM | < 100 nM | < 100 nM
C=Cc1cc2nccc(Oc3ccc(NC(=O)c4cnc(C)c(-c5ccc(F)cc5C)c4O)cc3F)c2nc1OC [Compound 423, N-[4-[(7-ethenyl-6-methoxy-1,5-naphthyridin-4-yl)oxy]-3-fluorophenyl]-5-(4-fluoro-2-methylphenyl)-4-hydroxy-6-methylpyridine-3-carboxamide] | 100 to 300 nM | < 100 nM | < 100 nM
COc1cc2nccc(Oc3ccc(NC(=O)c4cn(-c5ccn(C)n5)cc(-c5ccc(F)cc5)c4=O)cc3F)c2nc1OC [Compound 53, N-[4-[(6,7-Dimethoxy-1,5-naphthyridin-4-yl)oxy]-3-fluorophenyl]-5-(4-fluorophenyl)-1-(1-methylpyrazol-3-yl)-4-oxopyridine-3-carboxamide] | < 100 nM | < 100 nM | < 100 nM
COc1cnc2c(Oc3ccc(NC(=O)c4cnc(C)c(-c5ccc(F)cc5)c4O)cc3F)ccnc2c1 [Compound 64, N-[3-Fluoro-4-[(7-methoxy-1,5-naphthyridin-4-yl)oxy]phenyl]-5-(4-fluorophenyl)-4-hydroxy-6-methylpyridine-3-carboxamide] | < 100 nM | < 100 nM | < 100 nM
COc1cnc2c(Oc3ccc(NC(=O)c4c(C)nc(C)c(-c5ccc(F)cc5)c4O)cc3F)ccnc2c1 [Compound 66, N-[3-Fluoro-4-[(7-methoxy-1,5-naphthyridin-4-yl)oxy]phenyl]-5-(4-fluorophenyl)-4-hydroxy-2,6-dimethylpyridine-3-carboxamide] | < 100 nM | < 100 nM | < 100 nM
COCCOc1nc2c(Oc3ccc(NC(=O)c4cnc(C)c(-c5ccc(F)cc5)c4O)cc3F)ccnc2cc1OC [Compound 68, N-[3-Fluoro-4-[[7-methoxy-6-(2-methoxyethoxy)-1,5-naphthyridin-4-yl]oxy]phenyl]-5-(4-fluorophenyl)-4-hydroxy-6-methylpyridine-3-carboxamide] | < 100 nM | < 100 nM | < 100 nM
COc1cc2nccc(Oc3ccc(NC(=O)c4c5n(cc(-c6ccc(F)cc6)c4=O)CCC5)cc3F)c2cc1OC [Compound 409, N-[4-(6,7-dimethoxyquinolin-4-yl)oxy-3-fluorophenyl]-6-(4-fluorophenyl)-7-oxo-2,3-dihydro-1H-indolizine-8-carboxamide] | < 100 nM | < 100 nM | < 100 nM
COc1cc2nccc(Oc3ccc(NC(=O)c4cn(-c5cc[nH]n5)cc(-c5ccc(F)cc5)c4=O)cc3F)c2nc1OC [Compound 61, N-[4-[(6,7-Dimethoxy-1,5-naphthyridin-4-yl)oxy]-3-fluorophenyl]-5-(4-fluorophenyl)-4-oxo-1-(1H-pyrazol-3-yl)pyridine-3-carboxamide] | < 100 nM | < 100 nM | < 100 nM
COc1cc2nccc(Oc3ccc(NC(=O)c4c(C)n(C)cc(-c5ccc(F)cc5)c4=O)cc3F)c2nc1OC [Compound 81, N-[4-[(6,7-Dimethoxy-1,5-naphthyridin-4-yl)oxy]-3-fluorophenyl]-5-(4-fluorophenyl)-1,2-dimethyl-4-oxopyridine-3-carboxamide] | < 100 nM | < 100 nM | < 100 nM
COc1cc2nccc(Oc3ccc(NC(=O)c4cn(C5CC5)c(C)c(-c5ccc(F)cc5)c4=O)cc3)c2nc1OC [Compound 434, 1-cyclopropyl-N-[4-[(6,7-dimethoxy-1,5-naphthyridin-4-yl)oxy]phenyl]-5-(4-fluorophenyl)-6-methyl-4-oxopyridine-3-carboxamide] | < 100 nM | < 100 nM | < 100 nM
